# Read-outs that look alike come from different tables or passages of the source.
# What was measured:
# K562 (leukemia) = assay: NCI method SRB growth inhibition, K562; assay type: cell-based; conditions: Homo sapiens; K562, treated 48 hours, SRB stain
# Method in brief: (§1)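 Following the NCI method, one plate is fixed immediately before compound addition, test wells are fixed after 48 h treatment, and vehicle wells after 48 h in medium. All are stained with sulforhodamine B and measured at 515 nm, and GI50, TGI and LC50 are derived from the growth-rate curves.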
# OVCAR-3 (ovarian cancer) = assay: NCI method SRB growth inhibition, OVCAR-3; assay type: cell-based; conditions: Homo sapiens; OVCAR-3, treated 48 hours, SRB stain
# Method in brief: as §1
# [1] = Liver microsomes stability; assay type: in vitro ADME, human; conditions: for half-life at 1 μM: human, human liver microsomes
# Method in brief: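 Compound at 1 μM final incubated with 1 mg/mL human liver microsomes and 1 mM NADPH (no-NADPH control), sampled at 0, 5, 15, 30, 60 min. Remaining parent quantified by LC-MS/MS; T1/2 = 0.693/k.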
# 786-0 (renal cancer) = assay: NCI method SRB growth inhibition, 786-0; assay type: cell-based; conditions: Homo sapiens; 786-0, treated 48 hours, SRB stain
# Method in brief: as §1
# PC-3 (prostate cancer) = assay: NCI method SRB growth inhibition, PC-3; assay type: cell-based; conditions: Homo sapiens; PC-3, treated 48 hours, SRB stain
# Method in brief: as §1
# HCT116 (colon cancer) = assay: NCI method SRB growth inhibition, HCT116; assay type: cell-based; conditions: Homo sapiens, HCT-116; HCT116, treated 48 hours, SRB stain
# Method in brief: as §1
# [2] = Metabolic stability in vivo (plasma half-life after IV); conditions: intravenously at 1 mg/kg, male BALB/c nude mice; for half-life: mouse, plasma, iv, read-out: T½ of (IV in nude mice) (converted)
# Method: The intravenous injection group of the embodiment compound was prepared with the mixed solvent of DMA:PEG400:30% SBECD=5:25:70 to form a 0.2 mg/mL of solution, and administered intravenously at 1 mg/kg of weight; and the oral preparation group was prepared with 0.5% MC to form a 1 mg/mL of solution, and administered by oral gavage at 10 mg/kg weight.
# • Male BALB/c nude mice, 4-5 weeks old, purchased from Shanghai SLAC. 3. Experiment Method: 3.1 Instruments: • Liquid chromatography system: Shimadzu liquid chromatography system Shimadzu LC-30AD • MS/MS system: Applied Biosystems API5500 • Data collection: Analyst Software 1.5.2 3.2 Chromatographic Conditions Chromatographic Column • Analytical column: Kinetex 2.6u C18 100 A column (3.0 mm×30 mm) • Mobile phase: A: 10 mM NH4OAc (0.1% FA); B: Acetonitrile with 0.1% […] • Flow rate: 1.0 mL/min
# Ion source was an electron spray ionization (ESI source) with negative ion detection; spray voltage source was 5500 V; ion source gas 1 (N2) was 50 psi; ion source gas 2 (N2) was 50 psi; air curtain gas (N2) was 30 psi. Scanning mode was multiple reaction monitoring (MRM); scanning time was 80 ms; collision gas pressure was 10 psi;
# Grouping experiment, with three animals in each group, starting from now on, administration was started according to the weight of the animals. Blood was collected according to 5 min, 15 min, 30 min, 1 h, 2 h, 4 h, 8 h and 24 h after administration.
# To 25.0 μL of plasma, 25.0 μL of internal standard solution (Tolbutamide (250 ng/mL) in acetonitrile), 25.0 μL of acetonitrile and 100 μL of acetonitrile were added, and the mixture was vortexed for 1 min, and centrifuged for 5 min (14000 rpm). 120 μL of the resulting supernatant was added with 80.0 μL of water (containing 1% formic acid) and mixed well, then analyzed by LC/MS/MS.
# HS 578T (breast cancer) = assay: NCI method SRB growth inhibition, HS 578T; assay type: cell-based; conditions: Homo sapiens, HS578T, treated 48 hours, SRB stain
# Method in brief: as §1
# [3] = tested on: A549 (non-small cell lung cancer); assay: NCI method SRB growth inhibition, A549; assay type: cell-based; conditions: Homo sapiens; A549, treated 48 hours, SRB stain
# Method in brief: as §1
# [4] = tested on: SF295 (central nervous system tumor); assay: NCI method SRB growth inhibition, SF295; assay type: cell-based; conditions: Homo sapiens, SF-295; SF295, treated 48 hours, SRB stain
# Method in brief: as §1
# LOX-IMVI (melanoma) = assay: NCI method SRB growth inhibition, LOX-IMVI; assay type: cell-based; conditions: Homo sapiens, treated 48 hours, SRB stain
# Method in brief: as §1
# [5] = tested on: breast cancer cell line SUM159 sphere; assay: Breast cancer stem cell sphere formation; assay type: cell-based, human; conditions: 50 nM; for formation of the sphere after cell passage: 5 days of drug treatment, then passage
# Method: The inhibitory effects of embodiment compounds 5, 7, 11, 13, 14, 20 and 21 on the formation of breast cancer cell line SUM159 sphere are described as follows.
# The breast cancer cell line SUM159 sphere was cultured with serum-free medium in an ultra-low adsorption plate, the basal medium was DMEM/F12 (without phenol red), and B27 (without vitamin A) (1×), EGF (20 ng/ml), bFGF (20 ng/ml) and insulin (insulin, 5 ug/ml) were added.
# An equal number (4000) of SUM159 cells per well were inoculated into an ultra-low adsorption 24 plate, and the sphere was photographed after 5 days of culture, replaced with fresh medium, and treated with drugs at certain concentrations, respectively. Compounds 5, 7, 11, 13, 14, 20 and 21 were evaluated in this experiment at 50 nM, respectively. The effect of the drug on the sphere phenotype could be observed after about 3 days of drug treatment. The sphere was photographed again after 5 days of drug treatment, and then the sphere was passaged. The sphere was photographed again after 7 days of passage.
# The differences of the photographs taken in three different stages were counted and compared, and the killing effect of the tested compounds on SUM159 sphere was evaluated through the differences of sphere formation after passage, thus reflecting the inhibitory effects of different compounds on breast cancer stem cells.
# [6] = 1 μM compound, 1 mg/mL human liver microsomes, 1 mM NADPH
# [7] = 1 μM compound, 1 mg/mL human liver microsomes, 1 mM NADPH, read-out: T½ of HLM
# [8] = as repeated in Table 4, read-out: T½ of HLM (in vitro)
"microsomal CLint at 1 μM [1, 6] [µL/min/mg]","half-life at 1 μM [1, 7] [min]","half-life at 1 μM [1, 8] [min]",half-life [2] [min],T½ of (IV in nude mice) [2] [min],Structure (SMILES),GI50 (K562 (leukemia)) [nM],GI50 (OVCAR-3 (ovarian cancer)) [nM],GI50 (786-0 (renal cancer)) [nM],GI50 (PC-3 (prostate cancer)) [nM],GI50 (HCT116 (colon cancer)) [nM],GI50 (HS 578T (breast cancer)) [nM],GI50 [3] [nM],GI50 [4] [nM],GI50 (LOX-IMVI (melanoma)) [nM],killing effect on SUM159 sphere [5],formation of the sphere after cell passage [5]
16.5,42,42,53.1,–,"[2H]C([2H])([2H])Oc1cc(C(=O)Nc2cc3c(cc2Oc2cc(C)cc(C)c2)C(=O)N[C@@H](CC(=O)N(CC)CC)C(=O)N3)c(Cl)c(OC([2H])([2H])[2H])c1OC([2H])([2H])[2H] [Compound 1, (S)-2-chloro-N-[3-[2-(diethylamino)-2-oxoethyl]-7-(3,5-dimethylphenoxy)-2,5-dioxo-2,3,4,5-tetrahydro-1H-benzo[e][1,4]diazepin-8-yl]-3,4,5-tris(trideuteromethoxy)benzamide]",< 5,5.5,8.1,5.5,5.4,31.6,15,12.3,< 5,–,–
13.9,49.9,–,–,–,"[2H]C([2H])([2H])C([2H])([2H])N(C(=O)C[C@@H]1NC(=O)c2cc(Oc3cc(C)cc(C)c3)c(NC(=O)c3cc(OC)c(OC)c(OC)c3Br)cc2NC1=O)C([2H])([2H])C([2H])([2H])[2H] [Compound 7, (S)-2-bromo-N-[3-[2-[bis(pentadeuteroethyl)amino]-2-oxoethyl]-7-(3,5-dimethylphenoxy)-2,5-dioxo-2,3,4,5-tetrahydro-1H-benzo[e][1,4]diazepin-8-yl]-3,4,5-trimethoxybenzamide]",–,< 5,6.5,< 5,< 5,8.2,< 5,< 5,< 5,strong killing effect,significantly reduced
28.2,24.6,–,–,–,"[2H]C([2H])([2H])C([2H])([2H])N(C(=O)C[C@H]1C(=O)Nc2cc(NC(=O)c3cc(OC)c(OC)c(OC)c3Br)c(Oc3cc(C)cc(C)c3)cc2C(=O)N1C)C([2H])([2H])C([2H])([2H])[2H] [Compound 11, (S)-2-bromo-N-[3-[2-[bis(pentadeuteroethyl)amino]-2-oxoethyl]-7-(3,5-dimethylphenoxy)-4-methyl-2,5-dioxo-2,3,4,5-tetrahydro-1H-benzo[e][1,4]diazepin-8-yl]-3,4,5-trimethoxybenzamide]",< 5,< 5,10.4,< 5,15.7,< 5,< 5,10.9,< 5,strong killing effect,significantly reduced
14.8,46.8,–,–,–,"[2H]C([2H])([2H])Oc1cc(C(=O)Nc2cc3c(cc2Oc2cc(C)cc(C)c2)C(=O)N(C)[C@@H](CC(=O)N(C([2H])([2H])C([2H])([2H])[2H])C([2H])([2H])C([2H])([2H])[2H])C(=O)N3)c(Br)c(OC([2H])([2H])[2H])c1OC([2H])([2H])[2H] [Compound 13, (S)-2-bromo-N-[3-[2-[bis(pentadeuteroethyl)amino]-2-oxoethyl]-7-(3,5-dimethylphenoxy)-4-methyl-2,5-dioxo-2,3,4,5-tetrahydro-1H-benzo[e][1,4]diazepin-8-yl]-3,4,5-tris(trideuteromethoxy)benzamide]",< 5,< 5,11.5,< 5,< 5,< 5,< 5,7.5,< 5,strong killing effect,significantly reduced
11.3,61.3,–,–,–,"[2H]C([2H])([2H])Oc1cc(C(=O)Nc2cc3c(cc2Oc2cc(C)cc(C)c2)C(=O)N(C)[C@@H](CC(=O)N(C([2H])([2H])[2H])C([2H])([2H])[2H])C(=O)N3)c(Br)c(OC([2H])([2H])[2H])c1OC([2H])([2H])[2H] [Compound 14, (S)-2-bromo-N-[3-[2-[bis(trideuteromethyl)amino]-2-oxoethyl]-7-(3,5-dimethylphenoxy)-4-methyl-2,5-dioxo-2,3,4,5-tetrahydro-1H-benzo[e][1,4]diazepin-8-yl]-3,4,5-tris(trideuteromethoxy)benzamide]",< 5,< 5,5,< 5,< 5,–,< 5,< 5,< 5,strong killing effect,significantly reduced
–,–,–,–,–,"[2H]C([2H])([2H])Oc1cc(C(=O)Nc2cc3c(cc2Oc2cc(C)cc(C)c2)C(=O)N[C@@H](CC(=O)N(C([2H])([2H])[2H])C([2H])([2H])[2H])C(=O)N3)c(Br)c(OC([2H])([2H])[2H])c1OC([2H])([2H])[2H] [Compound 21, (S)-2-bromo-N-[3-[2-[bis(trideuteromethyl)amino]-2-oxoethyl]-7-(3,5-dimethylphenoxy)-2,5-dioxo-2,3,4,5-tetrahydro-1H-benzo[e][1,4]diazepin-8-yl]-3,4,5-tris(trideuteromethoxy)benzamide]",< 5,< 5,12.9,< 5,< 5,–,6.1,11.3,< 5,strong killing effect,significantly reduced
63.1,11,11,–,31.9,"CCN(CC)C(=O)C[C@H]1C(=O)Nc2cc(NC(=O)c3cc(OC)c(OC)c(OC)c3Br)c(Oc3cc(C)cc(C)c3)cc2C(=O)N1C [a, reference compound]",–,–,–,–,–,–,–,–,–,–,–
–,–,100,46.6,–,"COc1cc(C(=O)Nc2cc3c(cc2Oc2cc(C)cc(C)c2)C(=O)N[C@@H](CC(=O)N(C)C)C(=O)N3)c(Br)c(OC)c1OC [d, reference compound]",–,–,–,–,–,–,–,–,–,–,–

# — patent publication US12577213B2 (NINGBO COMBIREG PHARMACEUTICAL TECHNOLOGY CO., LTD., priority 2020, dated 2026)
